Experimental data taken from patent US20250101041A1, “POSITIVE ALLOSTERIC MODULATORS OF THE MUSCARINIC ACETYLCHOLINE RECEPTOR M4” (Vanderbilt University, priority 2022, published 2025).
pEC50: −log10 of the molar value.

Target: T1, human mAChR M4 (Homo sapiens, UniProt P08173)
T1 construct: expressed in transfected cells; host or cells: CHO-K1 (American Type Culture Collection), stably expressing hM4 and Gqi5
T1 sequence (P08173 1-479): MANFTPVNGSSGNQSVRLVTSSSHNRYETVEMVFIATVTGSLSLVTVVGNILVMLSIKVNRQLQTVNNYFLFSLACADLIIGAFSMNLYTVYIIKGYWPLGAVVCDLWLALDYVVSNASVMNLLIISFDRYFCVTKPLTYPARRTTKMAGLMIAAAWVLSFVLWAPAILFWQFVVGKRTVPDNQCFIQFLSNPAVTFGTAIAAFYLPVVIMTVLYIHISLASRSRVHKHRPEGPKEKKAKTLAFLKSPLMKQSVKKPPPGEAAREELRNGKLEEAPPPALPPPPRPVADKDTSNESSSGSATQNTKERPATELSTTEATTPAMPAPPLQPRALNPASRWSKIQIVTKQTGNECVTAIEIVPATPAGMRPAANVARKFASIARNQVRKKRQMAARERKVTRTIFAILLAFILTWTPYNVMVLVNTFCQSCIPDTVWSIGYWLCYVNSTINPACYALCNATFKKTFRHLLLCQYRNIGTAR
Assay: mAChR M4 cell-based functional assay: calcium mobilization (Fluo-4, FDSS), potentiation of EC20 acetylcholine response in hM4-Gqi5 CHO-K1 cells
Conditions: human M4; for Emax at 30 µM: CHO-K1, % ACh maximum at 30 μM; for pEC50: potentiation of EC20 acetylcholine response, calcium mobilization
Protocol: Human and rat M4 cDNAs, along with the chimeric G protein Gqi5, were transfected into Chinese hamster ovary (CHO-K1) cells purchased from the American Type Culture Collection using Lipofectamine2000. hM4-Gqi5 cells were grown in Ham's F-12 medium containing 10% heat-inactivated fetal bovine serum (FBS), 20 mM HEPES, 50 μg/mL G418 sulfate, and 500 μg/mL Hygromycin B. rM4-Gqi5 cells were grown in DMEM containing 10% heat-inactivated FBS, 20 mM HEPES, 400 μg/mL G418 sulfate, and 500 μg/mL Hygromycin B.
For high throughput measurement of agonist-evoked increases in intracellular calcium, CHO-K1 cells stably expressing muscarinic receptors were plated in growth medium lacking G418 and hygromycin at 15,000 cells/20 μL/well in Greiner 384-well black-walled, tissue culture (TC)-treated, clear-bottom plates (VWR). Cells were incubated overnight at 37° C. and 5% CO2. The next day, cells were washed using an ELX 405 (BioTek) with assay buffer; the final volume was then aspirated to 20 μL. Next, 20 μL of a […] of Fluo-4/acetoxymethyl ester (Invitrogen, Carlsbad, CA), prepared as a 2.3 mM stock in DMSO and mixed in a 1:1 ratio with 10% (w/v) Pluronic F-127 and diluted in assay buffer, was added to the wells and the cell plates were incubated for 50 min at 37° C. and 5% CO2. Dye was removed by washing with the ELX 405 and the final volume was aspirated to 20 μL. Compound master plates were formatted in an 11 point concentration-response curve (CRC) format (1:3 dilutions) in 100% DMSO with a starting concentration of 10 mM using a BRAVO liquid handler (Agilent). Test compound CRCs were then transferred to daughter plates (240 nL) using the Echo acoustic plate reformatter (Labcyte, Sunnyvale, CA) and then diluted into assay buffer (40 μL) to a 2× stock using a Thermo Fisher Combi (Thermo Fisher Scientific, Waltham, MA).
Calcium flux was measured using the Functional Drug Screening System (FDSS) 6000 or 7000 (Hamamatsu Corporation, Tokyo, Japan) as an increase in the fluorescent static ratio. Compounds were applied to cells (20 μL, 2X) using the automated system of the FDSS at 2-4 seconds into the protocol and the data were collected at 1 Hz. At 144 seconds, 10 μL of an EC20 concentration of the muscarinic receptor agonist acetylcholine was added (5×), followed by the addition of 12 μL of an […] concentration of acetylcholine at the 230 second time point (5×). Agonist activity was analyzed as a concentration-dependent increase in calcium mobilization upon compound addition. Positive allosteric modulator activity was analyzed as a concentration-dependent increase in the EC20 acetylcholine response. Antagonist activity was analyzed as a concentration-dependent decrease in the EC20 acetylcholine response. Concentration-response curves were generated using a four-parameter logistical equation in XLFit curve fitting software (IDBS, Bridgewater, NJ) for Excel (Microsoft, Redmond, WA) or Prism (GraphPad Software, Inc., San Diego, CA).
Compounds were synthesized as described above. Activity (EC50 and Emax) was determined in the mAChR M4 cell-based functional assay as described above and the data are shown in Table 4. The compound number corresponds to the compound numbers used in Tables 1-3.

| SMILES | Emax at 30 µM | pEC50 |
| --- | --- | --- |
| COc1cc(-c2cnc3c(c2)CN(c2nn4c(=O)ccnc4cc2C)CC3)c(Cl)cn1 [Compound 1-57, 7-(3-(5-chloro-2-methoxypyridin-4-yl)-7,8-dihydro-1,6-naphthyridin-6(5H)-yl)-8-methyl-4H-pyrimido[1,2-b]pyridazin-4-one] | 70% | 6.13 |
| Cc1ncc(-c2cnc3c(c2)CN(c2nn4c(=O)ccnc4cc2C)CC3)c(C)n1 [Compound 1-420, 7-(3-(2,4-dimethylpyrimidin-5-yl)-7,8-dihydro-1,6-naphthyridin-6(5H)-yl)-8-methyl-4H-pyrimido[1,6-b]pyridazin-4-one] | 93% | 5.76 |
| Cc1cc2nccc(=O)n2nc1N1CCc2ncc(-c3ccccc3C(F)F)cc2C1 [Compound 1-434, 7-(3-(2-(difluoromethyl)phenyl)-7,8-dihydro-1,6-naphthyridin-6(5H)-yl)-8-methyl-4H-pyrimido[1,2-b]pyridazin-4-one] | 90% | 6.62 |
| Cc1ncccc1-c1cnc2c(c1)CN(c1nn3c(=O)ccnc3c(C)c1C)CC2 [Compound 1-101, 8,9-dimethyl-7-(3-(2-methylpyridin-3-yl)-7,8-dihydro-1,6-naphthyridin-6(5H)-yl)-4H-pyrimido[1,2-b]pyridazin-4-one] | 93% | 6.48 |
| Cc1c(N2CCc3ncc(C(F)(F)F)cc3C2)nn2c(=O)cc(C(C)C)nc2c1C [Compound 1-107, 2-isopropyl-8,9-dimethyl-7-(3-(trifluoromethyl)-7,8-dihydro-1,6-naphthyridin-6(5H)-yl)-4H-pyrimido[1,2-b]pyridazin-4-one] | 102% | 6.75 |
| Cc1cc2nccc(=O)n2nc1N1CCc2ncc(-c3cc(F)ccn3)cc2C1 [Compound 1-354, 7-(3-(4-fluoropyridin-2-yl)-7,8-dihydro-1,6-naphthyridin-6(5H)-yl)-8-methyl-4H-pyrimido [1,2-b]pyridazin-4-one] | 63% | 5.60 |
| Cc1c(N2CCc3ncc(-c4cnn(-c5ccccn5)c4)cc3C2)nn2c(=O)ccnc2c1C [Compound 1-153, 8,9-dimethyl-7-(3-(1-(pyridin-2-yl)-1H-pyrazol-4-yl)-7,8-dihydro-1,6-naphthyridin-6(5H)-yl)-4H-pyrimido[1,2-b]pyridazin-4-one] | 67% | 6.23 |
| COc1ccsc1-c1cnc2c(c1)CN(c1nn3c(=O)cc(C)nc3c(C)c1C)CC2 [Compound 1-303, 7-(3-(3-methoxythiophen-2-yl)-7,8-dihydro-1,6-naphthyridin-6(5H)-yl)-2,8,9-trimethyl-4H-pyrimido[1,2-b]pyridazin-4-one] | 96% | 6.72 |
| Cc1cc2nccn2cc1-c1cnc2c(c1)CN(c1nn3c(=O)cc(C(F)F)nc3c(C)c1C)CC2 [Compound 1-162, 2-(difluoromethyl)-8,9-dimethyl-7-(3-(7-methylimidazo[1,2-a]pyridin-6-yl)-7,8-dihydro-1,6-naphthyridin-6(5H)-yl)-4H-pyrimido[1,2-b]pyridazin-4-one] | 71% | 6.28 |
| Cc1cc(=O)n2nc(N3CCc4ncc(-c5cncnc5)cc4C3)c(C)cc2n1 [Compound 1-286, 2,8-dimethyl-7-(3-(pyrimidin-5-yl)-7,8-dihydro-1,6-naphthyridin-6(5H)-yl)-4H-pyrimido[1,2-b]pyridazin-4-one] | 68% | 5.06 |
| Cc1cc2nc(C(=O)N3CC4(COC4)C3)cc(=O)n2nc1N1CCc2ncc(C(F)(F)F)cc2C1 [Compound 1-44, 8-methyl-2-(2-oxa-6-azaspiro[3.3]heptane-6-carbonyl)-7-(3-(trifluoromethyl)-7,8-dihydro-1,6-naphthyridin-6(5H)-yl)-4H-pyrimido[1,2-b]pyridazin-4-one] | 92% | 5.95 |
| Cc1cc2nc(C)c(C)c(=O)n2nc1N1CCc2ncc(C(F)(F)F)cc2C1 [Compound 1-25, 2,3,8-trimethyl-7-(3-(trifluoromethyl)-7,8-dihydro-1,6-naphthyridin-6(5H)-yl)-4H-pyrimido[1,2-b]pyridazin-4-one] | 81% | 6.60 |
| Cc1cc(=O)n2nc(N3CCc4ncc(-c5ccccc5C5CC5)cc4C3)c(C)c(C)c2n1 [Compound 1-248, 7-(3-(2-cyclopropylphenyl)-7,8-dihydro-1,6-naphthyridin-6(5H)-yl)-2,8,9-trimethyl-4H-pyrimido[1,2-b]pyridazin-4-one] | 80% | 6.07 |
| Cc1c(N2CCc3ncc(C(F)(F)F)cc3C2)nn2c(=O)ccnc2c1C [Compound 1-64, 8,9-dimethyl-7-(3-(trifluoromethyl)-7,8-dihydro-1,6-naphthyridin-6(5H)-yl)-4H-pyrimido[1,2-b]pyridazin-4-one] | 102% | 7.04 |
| Cc1cc(=O)n2nc(N3CCc4ncc(-c5ccccc5F)cc4C3)c(C)cc2n1 [Compound 1-234, 7-(3-(2-fluorophenyl)-7,8-dihydro-1,6-naphthyridin-6(5H)-yl)-2,8-dimethyl-4H-pyrimido[1,2-b]pyridazin-4-one] | 71% | 6.63 |

Further lines, results first:

| Emax at 30 µM | pEC50 | SMILES |
| --- | --- | --- |
| 90% | 6.54 | COc1ccc(Nc2cnc3c(c2)CN(c2nn4c(=O)ccnc4cc2C)CC3)cn1 [Compound 2-134, 7-(3-((6-methoxypyridin-3-yl)amino)-7,8-dihydro-1,6-naphthyridin-6(5H)-yl)-8-methyl-4H-pyrimido[1,2-b]pyridazin-4-one] |
| 99% | 7.70 | Cc1cc2nccc(=O)n2nc1N1CCc2ncc(Nc3cccc(F)c3)cc2C1 [Compound 2-79, 7-(3-((3-fluorophenyl)amino)-7,8-dihydro-1,6-naphthyridin-6(5H)-yl)-8-methyl-4H-pyrimido[1,2-b]pyridazin-4-one] |
| 99% | 6.51 | Cc1cc(=O)n2nc(N3CCc4ncc(N5CCSCC5)cc4C3)c(C)c(C)c2n1 [Compound 2-46, 2,8,9-trimethyl-7-(3-thiomorpholino-7,8-dihydro-1,6-naphthyridin-6(5H)-yl)-4H-pyrimido[1,2-b]pyridazin-4-one] |
| 95% | 7.29 | Cc1cc2nc(C(F)F)cc(=O)n2nc1N1CCc2ncc(N3CCOC(C)(C)C3)cc2C1 [Compound 2-24, 2-(difluoromethyl)-7-(3-(2,2-dimethylmorpholino)-7,8-dihydro-1,6-naphthyridin-6(5H)-yl)-8-methyl-4H-pyrimido[1,2-b]pyridazin-4-one] |
| 91% | 9.00 | Cc1cc2nc(C)c(C)c(=O)n2nc1N1CCc2ncc(Nc3ccncc3F)cc2C1 [Compound 2-158, 7-(3-((3-fluoropyridin-4-yl)amino)-7,8-dihydro-1,6-naphthyridin-6(5H)-yl)-2,3,8-trimethyl-4H-pyrimido[1,2-b]pyridazin-4-one] |
| 80% | 7.26 | Cc1cc(=O)n2nc(N3CCc4ncc(Oc5ccccc5F)cc4C3)c(C)cc2n1 [Compound 3-2, 7-(3-(2-fluorophenoxy)-7,8-dihydro-1,6-naphthyridin-6(5H)-yl)-2,8-dimethyl-4H-pyrimido[1,2-b]pyridazin-4-one] |
